Measured values published in patent publication US20230165970A1, “COMPOSITIONS AND METHODS FOR THE TREATMENT OF BACTERIAL INFECTIONS” (priority 2017, published 2023).
≈ marks a conversion by molar mass, not a printed value. Where two headings read alike, the source gives them in different places. *1 amine or outer side, *2 acyl side, *3 side chain or, on linkers, in order; H or OH if unused. Where a SMILES comes first, the peptide text is derived from it. Bridges are numbered along the chain shown (N, C = ends). Roman numbers before positions name the chains, in order. [ ]: non-standard residue; d: D form. The star is where a group is joined. X4 = C#CCOCCOCCOCCOCCNC(=O)CN(CC(=O)[*:1])CC(=O)[*:2]; Propargyl(OCH2CH2)4CO = C#CCOCCOCCOCCOCCC(=O)*; X1 = CCCCCC[C@@H](O)[C@H](N[*:1])C(=O)[*:2]; dCha = N[C@H](CC1CCCCC1)C(=O)O; Aoc(2) = CCCCCC[C@H](N)C(=O)O; Nle = CCCC[C@H](N)C(=O)O; Dab = NCC[C@H](N)C(=O)O; azaGly = NNC(=O)O

Tests used:
[1] = system: A. baumannii AB5075; type: cell-based
Description: (§1) Overnight stationary-phase cultures were centrifuged at 3,500×g for 10 min at room temperature and resuspended in 1×PBS to an optical density at 600 nm (OD600) of 0.4 (1×10^8 colony forming units [CFU]/ml) in RPMI with L-glutamine and phenol red (Life Technologies). Bacteria were diluted 1:25 in RPMI ([…]) and 10 ul added to wells of a non-binding 96-well plate (Corning 3641) containing 80 ul of 50% hirudin anti-coagulated blood (complement active) in RPMI. […] MBC was defined as the minimum conjugate concentration required for bacterial clearance (Table 8A and Table 8B). An untreated growth control (40% blood, 0 ug/ml conjugate) was included in all assays as a growth comparator.
(§2) MBC was defined as the minimum compound concentration required for complete bacterial clearance (Table 18).
(§3) In most cases, 2-4 fold improvements in antibacterial activity for the conjugates are observed in the presence of complement active human blood.

[2] = system: E. coli ATCC 25922; type: cell-based
Description: as §1, §2, §3

[3] = system: P. aeruginosa PAO1; type: cell-based
Description: as §1, §2, §3

[4] = system: Ec 2469; type: cell-based, Escherichia coli
Description: (§4) Briefly, stock solutions of all antibacterial agents were prepared fresh in appropriate solvents (i.e. PBS, pH 7.4, DMSO, DI, etc.). Stock concentrations for drug conjugates were made at 12.5× the highest final assay concentration. All were serially diluted 2-fold, 8 or 12 times in a 96-well PCR plate (VWR cat. no. 83007-374). Bacterial cell suspensions generated from Mueller-Hinton agar (MHA) plate cultures were prepared in 0.85% saline and adjusted to ˜0.1 OD600 nm. […] For the conjugates, 92 μL of each cell suspension in RPMI B were added in the same 96-well plate assay format. […] Compounds were tested against a 14-strain panel comprised of E. coli (Ec), A. baumannii (Ab), P. aeruginosa (Pa), and K. pneumoniae (Kp) that were obtained from ATCC (Ec 25922, Ec 2489, Ab 19606, Pa 27853, Pa PAO1, Kp 43816, Kp 10031), Centers for Disease Control and Prevention (Ec AR0349), BEI Resources (Ab AB5075), Micromyx LLC (Ab 8990, Kp 6951), and Belgian Coordinated Collections of Microorganisms (Pa LES431) or generated in-house (Ec 25922 64X-1). […] E. coli strain ATCC 25922 and P. aeruginosa strain LES431 were run in the presence and absence of 50% heat-inactivated fetal bovine serum (FBS; Sigma, cat. no. F4135-100 mL). Plates were mixed by shaking then incubated at 35° C. overnight (16-20 h).

[5] = system: Ec 25922; type: cell-based, Escherichia coli; settings: for MIC in RPMI EC 25922: pH 7.4
Description: as §4

[6] = system: Ec 25922 64X-1 (COL^R); type: cell-based, Escherichia coli; settings: media CA-MHB
Description: (§5) Briefly, stock solutions of all antibacterial agents were prepared fresh in appropriate solvents (i.e. PBS, pH 7.4, DMSO, DI, etc.). Stock concentrations for drug conjugates were made at 12.5× the highest final assay concentration. All were serially diluted 2-fold, 8 or 12 times in a 96-well PCR plate (VWR cat. no. 83007-374). Bacterial cell suspensions generated from Mueller-Hinton agar (MHA) plate cultures were prepared in 0.85% saline and adjusted to ˜0.1 OD600 nm. Next, cell suspensions were diluted 1:200 in RPMI containing 5% Luria Broth (LB) to improve bacterial growth (BD Difco, cat. no. 244620) to a concentration of ˜5×10^5 CFU (colony-forming units)/mL. Due to poor solubility in Mueller-Hinton broth media, drug conjugates were evaluated in RPMI 1640 medium (+) L-glutamine, (+) sodium bicarbonate, pH 7.4 (“RPMI B”; Gibco, cat. no. 11875-085) as has been described as a more physiologically-relevant media for susceptibility testing of antibacterial compounds (1). For the conjugates, 92 μL of each cell suspension in RPMI B were added in the same 96-well plate assay format. […] Compounds were tested against a 14-strain panel comprised of E. coli (Ec), A. baumannii (Ab), P. aeruginosa (Pa), and K. pneumoniae (Kp) that were obtained from ATCC (Ec 25922, Ec 2489, Ab 19606, Pa 27853, Pa PAO1, Kp 43816, Kp 10031), Centers for Disease Control and Prevention (Ec AR0349), BEI Resources (Ab AB5075), Micromyx LLC (Ab 8990, Kp 6951), and Belgian Coordinated Collections of Microorganisms (Pa LES431) or generated in-house (Ec 25922 64X-1). […] E. coli strain ATCC 25922 and P. aeruginosa strain LES431 were run in the presence and absence of 50% heat-inactivated fetal bovine serum (FBS; Sigma, cat. no. F4135-100 mL). Plates were mixed by shaking then incubated at 35° C. overnight (16-20 h).

[7] = system: Ec AR0349 (mcr-1, COL^R); type: cell-based, Escherichia coli; settings: media CA-MHB
Description: as §5

[8] = system: Ab 19606 (COLhet^R); type: cell-based, Acinetobacter baumannii; settings: media CA-MHB
Description: as §5

[9] = system: Ab AB58705 (COL^R) IpxD, mut. (no LPS); type: cell-based, Acinetobacter baumannii; settings: media CA-MHB
[10] = system: Ab 8990 (COL^R); type: cell-based, Acinetobacter baumannii
Description: as §4

[11] = system: Ab AB5075; type: cell-based, Acinetobacter baumannii; settings: for MIC in RPMI AB 5075: pH 7.4
Description: as §4

[12] = system: Pa 27853; type: cell-based, Pseudomonas aeruginosa
Description: as §4

[13] = system: Pa LES431; type: cell-based, Pseudomonas aeruginosa
Description: as §4

[14] = system: Pa PAO1; type: cell-based, Pseudomonas aeruginosa; settings: for MIC: PAO1; for MIC in RPMI PA 01: PAO1, pH 7.4
Description: as §4

[15] = system: Kp 10031; type: cell-based, Klebsiella pneumoniae
Description: as §4

[16] = system: Kp 43816; type: cell-based, Klebsiella pneumoniae
Description: as §4

[17] = system: Kp 6951 (COL^R); type: cell-based, Klebsiella pneumoniae
Description: as §4

[18] = system: Sa RN; type: cell-based
[19] = system: E. coli 25922; settings: 0.3 mg/kg IP qd at T+1 hour; 72 hours after bacterial challenge; N=3
Description: In vivo screening of selected compounds was accomplished in an E. coli bacteremia model (N=3). Efficacy was assessed in an animal model of infection using CD-1 mice by evaluating bacteremia in immune competent mice challenged with 2× the LD95 of E. coli 25922 (dosed qd, intraperitoneally (IP) at T+1 hour, survival endpoint).
Colistin (COL) and Int-17 were dosed at 0.3 mg/kg and Int-41 was dosed at 3.0 mg/kg. Percent survival was determined 72 hours after bacterial challenge. Compounds with MICs against E. coli 25922 of less than 4 μg/ml were evaluated in the bacteremia model.
Int-115 and Int-118 were evaluated for potency in a lethal model of bacteremia. […] Test articles were dissolved in 1× PBS and injected IV at a dose volume of 10 ml/kg one hour following bacterial challenge. Animals were monitored twice daily and mortality scored over three days.
CD-1 mice were used for bacteremia, C57BL/6J mice for endotoxemia. The endpoint was survival after three days for both models.

Structure (SMILES)	MBC in blood AB 5075 [1] [µg/mL]	MBC in blood EC 25922 [2] [µg/mL]	MBC in blood PA 01 [3] [µg/mL]	MIC [4] [µg/mL]	MIC [5] [µg/mL]	MIC in RPMI EC 25922 [5] [µg/mL]	MIC [6] [µg/mL]	MIC [7] [µg/mL]	MIC [8] [µg/mL]	MIC [9] [µg/mL]	MIC [11] [µg/mL]	MIC in RPMI AB 5075 [11] [µg/mL]	MIC [12] [µg/mL]	MIC [13] [µg/mL]	MIC [14] [µg/mL]	MIC in RPMI PA 01 [14] [µg/mL]	MIC [15] [µg/mL]	MIC [16] [µg/mL]	MIC [17] [µg/mL]	MIC [18] [µg/mL]	further results
C#CCOCCOCCOCCOCCNC(=O)CN(CC(=O)N[C@@H](CCCC)C(=O)N[C@@H](CCN)C(=O)N[C@H](C(=O)NNC(=O)N[C@H]1CCNC(=O)[C@H]([C@@H](C)O)NC(=O)[C@H](CCN)NC(=O)[C@H](CCN)NC(=O)[C@H](CC(C)C)NC(=O)[C@@H](CC2CCCCC2)NC(=O)[C@H](CCN)NC1=O)[C@H](O)CCCCCC)CC(=O)N[C@@H](CCCC)C(=O)N[C@@H](CCN)C(=O)N[C@H](C(=O)NNC(=O)N[C@H]1CCNC(=O)[C@H]([C@@H](C)O)NC(=O)[C@H](CCN)NC(=O)[C@H](CCN)NC(=O)[C@H](CC(C)C)NC(=O)[C@@H](CC2CCCCC2)NC(=O)[C@H](CCN)NC1=O)[C@H](O)CCCCCC [Int-117] (I: [Nle][Dab][X1][azaGly][Dab][Dab][dCha]L[Dab][Dab]T / II: [Nle][Dab][X1][azaGly][Dab][Dab][dCha]L[Dab][Dab]T; lactam I:5-I:C, II:5-II:C; linker I:N-II:N via X4)	>0.2	>0.2	>0.2	8 (≈ 2.87 µM)	8 (≈ 2.87 µM)	1.08 (≈ 0.387 µM)	8 (≈ 2.87 µM)	8 (≈ 2.87 µM)	8 (≈ 2.87 µM)	8 (≈ 2.87 µM)	8 (≈ 2.87 µM)	1.08 (≈ 0.387 µM)	8 (≈ 2.87 µM)	4 (≈ 1.43 µM)	16 (≈ 5.74 µM)	2.16 (≈ 0.774 µM)	8 (≈ 2.87 µM)	8 (≈ 2.87 µM)	16 (≈ 5.74 µM)	16 (≈ 5.74 µM)	MIC [10]: 8 µg/mL (≈ 2.87 µM)
C#CCOCCOCCOCCOCCC(=O)N[C@@H](CCCCCC)C(=O)N[C@@H](CCN)C(=O)N[C@H](C(=O)N[C@@H](CCN)C(=O)N[C@H]1CCNC(=O)[C@H]([C@@H](C)O)NC(=O)[C@H](CCN)NC(=O)[C@H](CCN)NC(=O)[C@H](CC(C)C)NC(=O)[C@@H](Cc2ccccc2)NC(=O)[C@H](CCN)NC1=O)[C@@H](C)O [Int-17] ({Propargyl(OCH2CH2)4CO}-[Aoc(2)][Dab]T[Dab][Dab][Dab][dF]L[Dab][Dab]T; lactam 5-C)	–	–	–	1 (≈ 0.691 µM)	2 (≈ 1.38 µM)	–	64 (≈ 44.2 µM)	16 (≈ 11.1 µM)	1 (≈ 0.691 µM)	–	1 (≈ 0.691 µM)	–	2 (≈ 1.38 µM)	1 (≈ 0.691 µM)	4 (≈ 2.76 µM)	–	1 (≈ 0.691 µM)	1 (≈ 0.691 µM)	>128	–	MIC E. coli ATCC 25922, No serum [5]: 2 µg/mL (≈ 1.38 µM); MIC E. coli ATCC 25922, Serum [5]: 0.5 µg/mL (≈ 0.346 µM); % Survival (IP, QD) [19]: 100%
C#CCOCCOCCOCCOCCC(=O)N[C@@H](CCN)C(=O)N[C@H](C(=O)NNC(=O)N[C@H]1CCNC(=O)[C@H]([C@@H](C)O)NC(=O)[C@H](CCN)NC(=O)[C@H](CCN)NC(=O)[C@H](CC(C)C)NC(=O)[C@@H](CC2CCCCC2)NC(=O)[C@H](CCN)NC1=O)[C@H](O)CCCCCC [Int-115] ({Propargyl(OCH2CH2)4CO}-[Dab][X1][azaGly][Dab][Dab][dCha]L[Dab][Dab]T; lactam 4-C)	0.05 (≈ 0.0373 µM)	0.05 (≈ 0.0373 µM)	>0.2	2 (≈ 1.49 µM)	2 (≈ 1.49 µM)	2.23 (≈ 1.66 µM)	64 (≈ 47.8 µM)	16 (≈ 11.9 µM)	4 (≈ 2.99 µM)	64 (≈ 47.8 µM)	2 (≈ 1.49 µM)	1.11 (≈ 0.829 µM)	4 (≈ 2.99 µM)	4 (≈ 2.99 µM)	8 (≈ 5.97 µM)	8.91 (≈ 6.65 µM)	2 (≈ 1.49 µM)	2 (≈ 1.49 µM)	128 (≈ 95.5 µM)	>128	MIC ([10]; Ab 8990 (COL^R), media CA-MHB): >128 µg/mL
C#CCOCCOCCOCCOCCC(=O)Nc1nc(C)c(C(=O)N[C@@H](CCCC)C(=O)C[C@@H](CCN)C(=O)N[C@H](C(=O)NC(CCCN)C(=O)N[C@H]2CCNC(=O)[C@H]([C@@H](C)O)NC(=O)[C@H](CCN)NC(=O)[C@H](CCN)NC(=O)[C@H](CC(C)C)CC(=O)[C@@H](Cc3ccccc3)NC(=O)[C@H](CCN)CC2=O)[C@@H](C)O)s1 (stereo partly drawn) [Int-125]	0.1 (≈ 0.0637 µM)	0.05 (≈ 0.0318 µM)	0.2 (≈ 0.127 µM)	1 (≈ 0.637 µM)	1 (≈ 0.637 µM)	0.94 (≈ 0.599 µM)	64 (≈ 40.8 µM)	16 (≈ 10.2 µM)	4 (≈ 2.55 µM)	32 (≈ 20.4 µM)	2 (≈ 1.27 µM)	1.88 (≈ 1.2 µM)	2 (≈ 1.27 µM)	1 (≈ 0.637 µM)	2 (≈ 1.27 µM)	3.76 (≈ 2.4 µM)	1 (≈ 0.637 µM)	1 (≈ 0.637 µM)	–	>128	MIC ([10]; Ab 8990 (COL^R), media CA-MHB): >128 µg/mL; MIC ([17]; Kp 6951 (COL^R), media CA-MHB): >128 µg/mL
